Test results from a melting point compilation (Tetko et al.; mined from patent text by program, amines drawn as free bases though some values may be those of a salt).

Structure (SMILES) | melting point [°C]
CN1CCN(C(c2ccccc2)c2ccccc2)CC1(C)Cc1ccc2c(c1)OCCO2 (configuration not stated) | 118 to 120
CCOP(=O)(OCC)C(CCc1cc(C)nc2c(I)c(-c3ccccc3)nn12)P(=O)(OCC)OCC | 81 to 82
Cn1nc(-c2nc(C#N)c(C#N)nc2-c2ccccc2)ccc1=O | 210 to 212
Cn1nc(-c2cccc(F)c2)n(C)c1=S | 126 to 128
O=C(N[C@H](Cc1ccc(C(F)(F)F)cc1)[C@H](O)c1ccc(F)cc1)c1cccc2ccccc12 (racemic) | 134 to 135
CCCCc1nn2cccc(C(=O)OC)c2c1Cc1ccc(-c2ccccc2C#N)cc1 | 92 to 95
O=C1C[C@@H]2[C@@H](/C=C/[C@@H](O)COc3cccc(Cl)c3)[C@H](OC(=O)c3ccccc3)C[C@@H]2O1 | 101 to 102
COc1ccccc1Cc1c(N)nc(SCCCN2CCN(C(C)=O)CC2)nc1N | 208 to 209
Cc1cccc(-c2[nH]c(C(C)C)nc2-c2cccc(-c3ccccn3)c2)n1 | 97 to 100
Cc1nc2cccc(OCC(C)(C)C(=O)NC(C)C)c2c(N)c1C(=O)O | 216 to 218
CCc1nc2c(N)nc(C)c(C)c2n1CCOCCNC(=O)C1CCCCC1 | 170 to 172
CC1(C)CC(CS(=O)(=O)NCC(=O)O)c2cc(OCc3ccccc3)ccc2O1 (configuration not stated) | 131
CCCCCNC(=O)C(C)Cc1ccc2c(c1)c(Cc1ccc(C(=O)O)cc1OC)cn2C (configuration not stated) | 85 to 95
CCOC(=O)N1C(=O)[C@H](O)[C@@H]1c1ccccc1 | 112 to 113
OCc1ccc(Br)nc1 | 49 to 51
O=S(=O)(c1ccc(Cl)cc1)C(c1ccc(C2OCCO2)cn1)c1cc(F)ccc1F (configuration not stated) | 167 to 168
Cc1cc(-c2cc(C(F)(F)F)n3ncc(C(=O)O)c3n2)ccc1C(F)(F)F | 250
C=CCOc1cccc(C(C)=O)c1O | 51 to 52
CCCc1c(CSc2nnc(NC(=O)CC(=O)OCc3ccc(OC)cc3)s2)ccc(C(C)=O)c1O | 162 to 166
CC(C)(C)C(=O)c1c[nH]c2ncc(Cl)nc12 | 209 to 210
O=C1C(Cl)=Cc2c(Cl)cc3c4c(c(Cl)cc1c24)C=C(Cl)C3=O | 315 to 320
Clc1ccc(CN2CCOCC2)c(N=C2CCCCN2)c1 | 121 to 122
O=Cc1ccc(Sc2nc3ncccc3[nH]2)o1 | 188
CC1CC(=O)C=C(N)C1 (configuration not stated) | 165 to 169

Structure (SMILES) | melting point [°C]
CCC(C)(C)CNc1c(N=O)c(C)nn1C | 45 to 50
O=C(CNC(=O)c1ccc(Cl)c(Cl)c1)c1ccoc1 | 133 to 134
CC(C)(C)N1C(=O)C(=O)N(c2cc(Cl)cc(Cl)c2)S1=O (configuration not stated) | 182
COc1ccc(C2(O)CCC3(CC2)OCCO3)c2c1OCCO2 | 94 to 96
CNC1(C)CN(c2cc3c(cc2F)c(=O)c2c(=O)[nH]sc2n3C2CC2)C1 | 286 to 290
CCCCOC(=O)c1cc2cccc(OC)c2[nH]1 | 66 to 69
COc1cc2sc(C#N)cc2cc1OC(F)F | 99 to 101
COc1ccc(O)c(C2(NCC(C)=O)Sc3ccccc3N(C)C2=O)c1 (configuration not stated) | 164 to 168
CCNc1nc(SC)ncc1C=Nc1cc(OC)cc(OC)c1Cl | 196 to 198
CSc1nc(Oc2ccccc2)c(C(=O)O)c(Oc2ccccc2)n1 | 97 to 98
COc1cc(OC)c2c(=O)[nH]c(-c3ccc4[nH]c(CO)cc4c3)nc2c1 | 264 to 265
CC(=O)c1cc2c(cc1NC(=O)C(O)(CC(C)(C)c1ccccc1)C(F)(F)F)COC2=O (configuration not stated) | 195 to 199
CCCCCCCC(=O)CCCCCC(=O)N[C@@H](C)C(=O)O | 84 to 86
NC(=O)C1=C(NCc2ccccc2)CCCC1 | 73 to 74
CC(=O)NC1(c2ccccc2)C2=NCC(C)(C)CN2c2ccccc21 (configuration not stated) | > 300
CCCCCCCCCCCCCCOCc1ccc(C=C2C(=O)C3(C)CCC2C3(C)C)cc1 (configuration not stated) | 35
CC1CN(C(=O)Cn2c(=O)n(C)c3nc(-c4ccccc4)ncc32)CC(C)O1 (configuration not stated) | 160 to 161
CC(C(=O)O)c1ccc(-c2ccc(F)cc2)c(F)c1 (configuration not stated) | 118 to 119
CCOC(=O)C(C(=O)Nc1ccc(OC)cc1)(c1ccccc1)c1ccccc1 | 89 to 91
C=Cc1nc2cc(-c3ccc(C#N)cc3)ccc2o1 | 143 to 144
CN1CCN(C(=O)c2cn(C)nc2Nc2ccc(C(F)(F)F)cc2N)CC1 | 170
CCCC(c1cc(C(=O)Nc2ccccc2)ccc1OCc1ccc(Br)cc1)n1ccnc1 (configuration not stated) | 159 to 166
O=C1CSC(c2ccc(-n3ccc(=O)cc3)cc2)=NN1 | 289 to 291
CCn1c(=O)n(OCc2ccccc2)c(=O)c2cc(F)c(N3CCCC3)nc21 | 189 to 190

Structure (SMILES) | melting point [°C]
CCOC1Nc2c(ccc(C)c2OC(C)=O)C(=O)N2CCCC12 (configuration not stated) | 145 to 147
CC(C)CC(=O)Nc1cccc(-c2ccnc3c(-c4ccc5c(c4)OCO5)cnn23)c1 | 172 to 173
Cc1ccc(NS(=O)(=O)c2ccc(N3CCNC3=O)cc2)c(C)c1 | 238 to 239
CC(=O)c1sccc1CN1C(=O)C(NC(=O)Nc2cccc(C)c2)N=C(C2CCCCC2)c2ccccc21 (racemic) | 231 to 232
OC(CCNCc1ccccc1)(COc1ccc(Cl)cc1)c1ccccc1 (configuration not stated) | 70 to 71
CCOCc1nc2c(N)nc3ccccc3c2n1CC1(OCCS(C)(=O)=O)CCNCC1 | 212 to 214
CC12CCC3C(CCC4C(=[N+]=[N-])C(=O)CCC43C)C1CCC2O (configuration not stated) | 171
Cc1c(C2=CCC(c3cccc(F)c3)(N(C)C)CC2)[nH]c2ccccc12 (configuration not stated) | 157 to 163
COP(=O)(Cc1nc2ccccc2nc1CP(=O)(OC)OC)OC | 115 to 116
FC(F)(F)c1ccc(/C=C/C=C/[C@H]2CC[C@H](SCc3ccc(Cl)cc3)CC2)cc1 | 142 to 144
CCCOC(=O)CCc1cc(Cl)ccc1C(=O)CCCNC(C)=O | 60 to 62
O=C(Nc1ccc(C(=O)N2Cc3ccccc3Cc3ccccc32)cc1)c1ccc(Cl)c(Cl)c1 | 212 to 215
Cc1nc2cc(C(C)C(=O)O)ccc2o1 (configuration not stated) | 115 to 117
ClCCCn1cc2cc(OCc3ccccc3)ccc2n1 | 97 to 98
CN(CCCNC(=O)NCCCOc1cccc(CN2CCCCC2)c1)CCN(Cc1ccc(F)cc1)c1ccccn1 | 123 to 125
Fc1ccc(-c2cc(N3CCNCC3)nnc2C(F)(F)F)cc1 | 137
C#Cc1cc2c(cc1C=O)C(C)(C)CCC2(C)C | 94 to 94.6
CC(=O)C1=C(C)CC2C3CCC4CC(O)CCC4(C)C3C(=O)CC12C (configuration not stated) | 230 to 231
CC(C)(C)c1cccc(C(C)(C)C)c1C(OC(N)=O)S(=O)(=O)NC(c1ccccc1)c1ccccc1 (configuration not stated) | 175 to 178
Cc1cc(=O)c2c(o1)CCOC2 | 107 to 110
Cc1ccc(-c2ccc3c(c2)C=C(CO)CCO3)cc1 | 91 to 92
COC1(Nc2ccccc2CCCc2ccc(Cl)c(Cl)c2)CC=C(C(=O)O)C=C1[N+](=O)[O-] (configuration not stated) | 127 to 129

Now from value to compound:

melting point [°C] | Structure (SMILES)
132 to 133 | CC(C)(C)[Si](OCC#Cc1ccc2ncc3c(c2c1)C(O)CCC3)(c1ccccc1)c1ccccc1 (configuration not stated)
134 to 140 | CS(=O)(=O)Oc1cccc2c1C(=O)OC2=O
53 to 54 | CCOC(=O)c1cc(OCC)c(OCC)cc1[N+](=O)[O-]
198 to 200 | N#Cc1c(Br)[nH]c(Br)c1C(F)(F)F
211 to 213 | COC(=O)c1ccc2oc(-c3ccccc3OCC(C)OC(=O)c3ccccc3)cc(=O)c2c1 (configuration not stated)
47 to 48.5 | CCCCCC(=O)NC1(OCC)CC1
170 to 171 | O=C(O)CCOc1ccccc1-c1nc(-c2ccccc2)no1
73 to 75 | O=c1c2ccccc2ccc2cc(CCO)ccc12
133 | CN(C)c1ccccc1SCC(N)=NO
160 to 162 | CCOC(=O)c1sc2nc(SCCCN3CCN(c4ccccn4)CC3)[nH]c(=O)c2c1C
190 to 191 | Cc1c(S(=O)(=O)Nc2ccc(-c3nc(CCl)cs3)cc2S(C)(=O)=O)sc2ccc(F)cc12
125 to 127 | CCc1ccc(OCCCCCN2CCN(c3nccs3)CC2)cc1
203 to 205 | Cn1c(C=NO)cnc1[N+](=O)[O-]
185 to 189 | CSc1sc(-c2nnco2)c2c1C(=O)CC(C)(C)C2
87 to 89 | BrCc1nc2cc(OCc3ccccc3)ccc2s1
87 to 95 | COC[C@H]1CN(C2=Nc3ccccc3Nc3sc(C)cc32)CCN1

melting point [°C] | Structure (SMILES)
242 to 244 | Clc1cc(N2CCOCC2)ccc1Nc1ncc2c(Cl)cc(-c3ccccc3)n2n1
60 to 62 | CCCCCCCCCCCCCCCCCCOc1cc(OCCCCCCOc2ccc(OCc3ccccc3)cc2)cc(C(=O)OCc2ccccc2)c1
85 to 88 | c1cnc(N2CCN(CCCCn3cnc4ccccc43)CC2)nc1
73 to 74 | c1ccc(COc2cccnc2Cn2ccnc2)cc1
211 to 212 | Nc1cc(-c2ccoc2)ccc1Nc1cccc(C(=O)O)c1
87 to 93 | CN(C)CCCNC(=O)c1ccc(-c2nnc(CSCCCCOc3ccccc3)o2)cc1
229 to 231 | COc1cccc2c(=O)c(C(N)=O)coc12
270 to 271 | N#CN=C(Nc1ccccc1)Nc1ccc(C#N)cc1O
196 to 197 | Cc1cc2ncnn2nc1OCC(CS(N)(=O)=O)C(C)C (configuration not stated)
82 to 84 | C#CCOC(=O)c1ccc(O)cc1
159 | CN(CS(C)(=O)=O)C(=O)Nc1ccc(Cl)c(Cl)c1
210 to 216 | Cc1cc(C=C2SC(=S)NC2=O)cc(C(C)(C)C)c1O
69 to 70 | CCCCCCCCCCOc1ccc(Br)cc1C12CC3CC(CC(C3)C1)C2
214 to 218 | NC(=S)c1cnn(-c2c(Cl)cc(C(F)(F)F)cc2Cl)n1
253 to 255 | O=C(O)COc1c[nH]cc(Cl)c1=O
57.5 to 58.5 | CC(C)(C)OC(=O)c1ccc(OCCCCl)cc1
